The record followed here is patent US11851428B2, “Activator of TREK (TWIK RElated K+channels) channels” (ONO PHARMACEUTICAL CO., LTD., priority 2016, dated 2023).

The assay addresses T1, human TREK-1 (Homo sapiens, UniProt O95069).
T1 construct: expressed in transfected cells
T1 sequence (O95069 1-426): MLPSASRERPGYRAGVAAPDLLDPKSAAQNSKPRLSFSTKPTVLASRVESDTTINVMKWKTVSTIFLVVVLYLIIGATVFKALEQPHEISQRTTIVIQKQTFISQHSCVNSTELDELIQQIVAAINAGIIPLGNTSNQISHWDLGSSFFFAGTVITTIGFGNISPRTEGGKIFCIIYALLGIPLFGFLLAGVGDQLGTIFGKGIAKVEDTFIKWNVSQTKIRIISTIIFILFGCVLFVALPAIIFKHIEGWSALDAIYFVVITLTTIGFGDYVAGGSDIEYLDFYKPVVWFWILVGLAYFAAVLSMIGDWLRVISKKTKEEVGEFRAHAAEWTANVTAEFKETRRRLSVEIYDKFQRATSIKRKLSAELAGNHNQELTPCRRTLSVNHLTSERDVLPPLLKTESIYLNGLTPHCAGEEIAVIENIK
Briefly: thallium flux assay (TREK1 activation normalized to BL-1249). In kind it is cell-based. The settings on record: normalized to 10 μM BL-1249, CHO-K1 cells stably expressing human TREK-1; for activation at 10 µM / activation at 30 µM: read-out: TREK1 activation RBL-1249 (%). As to the method:
The term “thallium flux assay” herein refers to a fluorescence-based assay used to monitor the activity of TREK channels. Thallium is a congener of potassium that readily fluxes through the pore of TREK channels. Thallium flux is measured using a commercially available, thallium-sensitive fluorescent dye called Thallos. The detail method is described below.
Method 1 (Thallium Flux Assay);
CHO-K1 cells stably expressing human TREK-1 or HEK293 cells stably expressing human TREK-2 are plated in 384-well plates, cultured overnight, loaded with Thallos dye the following day, treated with test compounds for 10 min, and then treated with thallium stimulus buffer to initiate thallium flux. The change in fluorescence at 25 seconds after thallium addition is normalized to baseline fluorescence (fluorescent intensity at 25 sec after Tl^+ addition)/(average of fluorescent intensity at pre-read).

[1] abbreviates: concentration of Example compound 10 μM.
Setting [2] is: concentration of Example compound 30 μM.

On to `O=C(NCc1ccc(OC(F)(F)F)cc1F)c1ccc(-c2ncc[nH]2)cc1` [Example 2-36, N-[2-fluoro-4-(trifluoromethoxy)benzyl]-4-(1H-imidazol-2-yl)benzamide], for which the activation at 10 µM under setting [1] amounted to 73%. The same measure, in the same setting: the result for `O=C(NCc1ccc(OC(F)(F)F)cc1Cl)c1ccn2cnnc2c1` [Example 9, N-[[2-Chloro-4-(trifluoromethoxy)phenyl]methyl]-[1,2,4]triazolo[4,3-a]pyridine-7-carboxamide] reads 99%; that for `Cc1nnc2cc(C(=O)NCc3ccc(OC(F)(F)F)c(F)c3)ccn12` [Example 3-3, N-[3-fluoro-4-(trifluoromethoxy)benzyl]-3-methyl[1,2,4]triazolo[4,3-a]pyridine-7-carboxamide], 67%. For `CS(=O)(=O)N1CCOc2cc(C(=O)NCc3ccc(Br)cc3Cl)ccc21` [Example 3-10, N-(4-bromo-2-chlorobenzyl)-4-(methylsulfonyl)-3,4-dihydro-2H-1,4-benzoxazine-7-carboxamide], under setting [2], the activation at 30 µM turned out to be 34%. On to `O=C(NCc1ccc(OC(F)(F)F)cc1F)c1ccc(-c2ncn[nH]2)cc1` [Example 2-24, N-[2-fluoro-4-(trifluoromethoxy)benzyl]-4-(1H-1,2,4-triazol-5-yl)benzamide], for which, under setting [1], the activation at 10 µM came to 69%.

`O=C(NCc1ccc(OC(F)(F)F)c(F)c1)c1ccc2ncnn2c1` [Example 1-23]: the “TREK1 activation RBL-1249 (%)” value under setting [1] amounted to 63%. On to `COc1cc(OC(F)(F)F)ccc1CNC(=O)c1ccc2ncnn2c1` [Example 1-26, N-[2-methoxy-4-(trifluoromethoxy)benzyl][1,2,4]triazolo[1,5-a]pyridine-6-carboxamide], for which the activation at 30 µM under setting [2] stood at 74%. In the case of `O=C(NCc1ccc(OC(F)(F)F)cc1Cl)c1ccc(-c2ncc[nH]2)cc1` [Example 9-15, N-[2-chloro-4-(trifluoromethoxy)benzyl]-4-(1H-imidazol-2-yl)benzamide], the activation at 10 µM under setting [1] amounted to 59%. Same read-out and setting: in the case of `Cn1nnc2cc(C(=O)NCc3ccc(OC(F)(F)F)cc3Cl)ccc21` [Example 9-4, N-[[2-chloro-4-(trifluoromethoxy)phenyl]methyl]-1-methylbenzotriazole-5-carboxamide] it was 87%; in that of `COc1cc(OC(F)(F)F)ccc1CNC(=O)c1cc2ncccn2n1` [Example 1-51, N-[2-methoxy-4-(trifluoromethoxy)benzyl]pyrazolo[1,5-a]pyrimidine-2-carboxamide], 65%. Take `COc1cc(OC(F)(F)F)ccc1CNC(=O)c1ccc(-c2ccccn2)nc1` [Example 2-29]: the “TREK1 activation RBL-1249 (%)” value under setting [1] is listed as 51%.

As to `O=C(NCc1ccc(Br)cc1Cl)c1ccc2[nH]nnc2c1` [Example 1-76, N-[(4-bromo-2-chlorophenyl)methyl]-1H-benzotriazole-5-carboxamide], the activation at 10 µM under setting [1] turned out to be 101%. The same measure, in the same setting: in the case of `Cc1cc(OC(F)(F)F)ccc1CNC(=O)c1cc2ncccn2n1` [Example 1-46, N-[2-methyl-4-(trifluoromethoxy)benzyl]pyrazolo[1,5-a]pyrimidine-2-carboxamide] it was 67%. Still for that read-out and setting: the result for `Cc1cc(OC(F)(F)F)ccc1CNC(=O)c1ccn2c(C)nnc2c1` [Example 3-5, 3-methyl-N-[2-methyl-4-(trifluoromethoxy)benzyl][1,2,4]triazolo[4,3-a]pyridine-7-carboxamide] reads 89%.

In the case of `O=C(NCc1ccc(C(F)(F)F)cn1)c1ccc(-n2cccn2)cc1` [Example 2-37, 4-(1H-pyrazol-1-yl)-N-{[5-(trifluoromethyl)-2-pyridinyl]methyl}benzamide], under setting [2], the activation at 30 µM was 24%. On to `O=C(NCc1ccc(OC(F)(F)F)cc1)c1ccc2[nH]ncc2c1` [Example 1-71, N-[4-(trifluoromethoxy)benzyl]-1H-indazole-5-carboxamide], for which the activation at 10 µM under setting [1] was 19%. As to `Cc1cc(OC(F)(F)F)ccc1CNC(=O)c1cc(F)nc(F)c1` [Example 1-55, 2-6-difluoro-N-[2-methyl-4-(trifluorothoxy)benzyl]isonicotinamide], the “TREK1 activation RBL-1249 (%)” value under setting [2] stood at 38%. Regarding `COc1cc(OC(F)(F)F)ccc1CNC(=O)c1ccn2cnnc2c1` [Example 1-30, N-[2-methoxy-4-(trifluoromethoxy)benzyl][1,2,4]triazolo[4,3-a]pyridine-7-carboxamide], the activation at 30 µM under setting [2] was 76%.

For the molecule `O=C(NCc1ccc(OC(F)(F)F)cc1)c1ccc(-c2nnco2)cc1` [Example 2-12, 4-(1,3,4-oxadiazol-2-yl)-N-[4-(trifluoromethoxy)benzyl]benzamide], under setting [1], the activation at 10 µM is 29%. Regarding `O=C(NCc1ccc(Br)cc1Cl)c1ccc2snnc2c1` [Example 1-86, N-[(4-bromo-2-chlorophenyl)methyl]-1,2,3-benzothiadiazole-5-carboxamide], the activation at 10 µM under setting [1] came out at 75%. For the molecule `Cc1cc(OC(F)(F)F)ccc1CNC(=O)c1ccn2cnnc2c1` [Example 1-45, N-[2-methyl-4-(trifluoromethoxy)benzyl][1,2,4]triazolo[4,3-a]pyridine-7-carboxamide], the activation at 10 µM under setting [1] is 85%.

For `O=C(NCc1ccc(OC(F)(F)F)cc1)c1ccc(-c2cnco2)cc1` [Example 2-6, 4-(1,3-oxazol-5-yl)-N-[4-(trifluoromethoxy)benzyl]benzamide], the activation at 10 µM under setting [1] was 32%. Turning to `Cc1cc(OC(F)(F)F)ccc1CNC(=O)c1nc2ncccn2n1` [Example 1-61, N-[2-methyl-4-(trifluoromethoxy)benzyl][1,2,4]triazolo[1,5-a]pyrimidine-2-carboxamide], the activation at 30 µM under setting [2] turned out to be 48%. Take `O=C(NCc1ccc(OC(F)(F)F)cc1)c1ccc(-c2ncccn2)cc1` [Example 2-47, 4-(2-pyrimidinyl)-N-[4-(trifluoromethoxy)benzyl]benzamide]: under setting [1], the activation at 10 µM came to 44%. As to `O=C(NCc1ccc(OC(F)(F)F)c(F)c1)c1ccc(-n2cncn2)cc1` [Example 2-3, N-[3-fluoro-4-(trifluoromethoxy)benzyl]-4-(1H-1,2,4-triazol-1-yl)benzamide], the activation at 10 µM under setting [1] was 72%. On to `COc1cc(OC(F)(F)F)ccc1CNC(=O)c1ccc(-n2cncn2)nc1` [Example 2-30, N-[2-methoxy-4-(trifluoromethoxy)benzyl]-6-(1H-1,2,4-triazol-1-yl)nicotinamide], for which the activation at 10 µM under setting [1] was 42%. On the same count and under the same terms, the result for `O=C(NCc1ccc(OC(F)F)cc1Cl)c1ccc2ncnn2c1` [Example 1-92, N-[[2-chloro-4-(difluoromethoxy)phenyl]methyl]-[1,2,4]triazolo[1,5-a]pyridine-6-carboxamide] reads 70%; that for `COc1cc(OC(F)(F)F)ccc1CNC(=O)c1ccc(-n2cccn2)cc1` [Example 2-41, N-[2-methoxy-4-(trifluoromethoxy)benzyl]-4-(1H-pyrazol-1-yl)benzamide], 63%; that for `Cc1cc(OC(F)(F)F)ccc1CNC(=O)c1ccc(-n2cccn2)cc1` [Example 2-38, N-[2-methyl-4-(trifluoromethoxy)benzyl]-4-(1H-pyrazol-1-yl)benzamide], 55%. On the same count and under the same terms, in the case of `O=C(NCc1ccc(OC(F)(F)F)c(F)c1)c1cc2ncccn2n1` [Example 1-52, N-[3-fluoro-4-(trifluoromethoxy)benzyl]pyrazolo[1,5-a]pyrimidine-2-carboxamide] it was 75%; in that of `O=C(NCc1ccc(S(F)(F)(F)(F)F)cc1)c1ccc(-n2cncn2)cc1` [Example 2-2, N-[4-(pentafluoro-λ^6-sulfanyl)benzyl]-4-(1H-1,2,4-triazol-1-yl)benzamide], 41%. On the same count and under the same terms, in the case of `O=C(NCc1ccc(OC(F)(F)F)cc1F)c1ccc(-n2cncn2)cc1` [Example 2-16, N-[2-fluoro-4-(trifluoromethoxy)benzyl]-4-(1H-1,2,4-triazol-1-yl)benzamide] it was 46%; in that of `O=C(NCc1ccc(C(F)(F)F)cc1Cl)c1ccc(-c2cccnc2)cc1` [Example 2-28, N-[2-chloro-4-(trifluoromethyl)benzyl]-4-(3-pyridinyl)benzamide], 22%. In the case of `O=C(NCc1ccc(OC(F)(F)F)cc1Cl)c1ccc2nnnn2c1` [Example 9-16, N-[2-chloro-4-(trifluoromethoxy)benzyl]tetrazolo[1,5-a]pyridine-6-carboxamide], under setting [1], the activation at 10 µM came out at 95%.

As to `O=C(NCc1ccc(OC(F)(F)F)cc1)c1ccc2[nH]cnc2c1` [Example 1-72, N-[4-(trifluoromethoxy)benzyl]-1H-benzimidazole-5-carboxamide], the activation at 30 µM under setting [2] was determined as 60%.

With `Cc1nc2ccc(C(=O)NCc3ccc(OC(F)(F)F)cc3C)cn2n1` [Example 3-4, 2-methyl-N-[2-methyl-4-(trifluoromethoxy)benzyl][1,2,4]triazolo[1,5-a]pyridine-6-carboxamide], the activation at 10 µM under setting [1] turned out to be 89%.
